Consider 24 compounds from patent US7381705B2, “Inhibitors of hepatitis C virus” (The Administrators Of The Tulane Educational Fund, priority 2004, dated 2008).

The subject of test [1] is HCV pseudotype (HIV core proteins, HCV E1 and E2 of strain H77). As to conditions: for Percent inhibition: 25 μM; for Inhibition of HCV pseudotype infectivity (in words): summary of Tables 7 and 8.
The subject of a further test is HIV-1. Particulars: AIDS patients, clinical trials; cited from earlier work.
Where [2] appears, read: HCV H77 1a E2 peptides at ~25 μM, Table 7, virus alone 448,123.
[3] abbreviates: HCV J4 1b E2 peptides at ~25 μM, Table 8, controls as in Table 7.

Where two headings read alike, the source gives them in different places. Ends that are not written are not given here. Peptide text beside a SMILES is read from it.

In the case of “SIASWAIKWEYVVLLFLL [compound 46, SIASWAIKWEYVVLLFLL]”, in test [1], the Percent inhibition was found to be 77.0% and the “Inhibition of HCV pseudotype infectivity (in words)” value (“Inhibition … (in words)” for short) is “inhibitory”. For the same compound, in test [1] (setting [2]), the Luciferase units is reported as 103,040 luciferase units (lumens).

Take GNWFGCTWMNSTGFTKVC [compound 23]: the Percent inhibition in test [1] was 17.9%. In addition, the Luciferase units in test [1] (setting [2]) is reported as 367,916 luciferase units (lumens).

Consider “AFVSFAIKWEYILLLFLL [compound 119, AFVSFAIKWEYILLLFLL]”, for which the Percent inhibition in test [1] is 84.6%. Besides, the Luciferase units in test [1] (setting [3]) is 69,220 luciferase units (lumens).

Take “DWFAQGWGPITYTKPNSS [compound 89, DWFAQGWGPITYTKPNSS]”: the Percent inhibition in test [1] was −0.3%. Moreover, the Luciferase units in test [1] (setting [3]) was 449,293 luciferase units (lumens).

With HRLEAACNWTRGERCDLE [compound 36], in test [1], the Percent inhibition is −19.5%. Further, the Luciferase units in test [1] (setting [2]) is listed as 535,016 luciferase units (lumens).

Take “DYPYRLWHYPCTINYTIF [compound 32, DYPYRLWHYPCTINYTIF]”: in test [1], the Percent inhibition was 81.0% and the “Inhibition … (in words)” value is given as “inhibitory”. Also, in test [1] (setting [2]), the Luciferase units is recorded as 85,086 luciferase units (lumens).

PTDCFRKHPEATYTKCGS [compound 104]: in test [1], the Percent inhibition was 6.3%. The Luciferase units in test [1] (setting [3]) is listed as 419,876 luciferase units (lumens).

In the case of LTPRCLVDYPYRLWHYPC [compound 107], the Percent inhibition in test [1] turned out to be 11.1%. The Luciferase units in test [1] (setting [3]) is 402,976 luciferase units (lumens).

Turning to `CC[C@H](C)[C@H](NC(=O)[C@H](CC(N)=O)NC(=O)[C@H](CS)NC(=O)[C@@H]1CCCN1)C(=O)NCC(=O)NCC(=O)N[C@H](C(=O)NCC(=O)N[C@@H](CC(N)=O)C(=O)N[C@@H](CCCNC(=N)N)C(=O)N[C@H](C(=O)N[C@@H](CC(C)C)C(=O)N[C@H](C(=O)N[C@@H](CS)C(=O)N1CCC[C@H]1C(=O)N[C@H](C(=O)N[C@@H](CC(=O)O)C(=O)N[C@@H](CS)C(=O)O)[C@@H](C)O)[C@@H](C)CC)[C@@H](C)O)C(C)C` [compound 102, PCNIGGVGNRTLICPTDC] (H-PCNIGGVGNRTLICPTDC-OH; N-terminus and C-terminus assumed), in test [1], the Percent inhibition came out at 15.8%. Also, in test [1] (setting [3]), the Luciferase units is listed as 377,216 luciferase units (lumens).

Consider “LLSTTEWQILPCAFTTLP [compound 115, LLSTTEWQILPCAFTTLP]”, for which, in test [1], the Percent inhibition is −6.2%. For the same compound, the Luciferase units in test [1] (setting [3]) is 475,713 luciferase units (lumens).

As to `CC[C@H](C)[C@H](NC(=O)[C@@H](NC(=O)[C@H](CS)NC(=O)[C@@H]1CCCN1)C(C)C)C(=O)NCC(=O)NCC(=O)N[C@H](C(=O)NCC(=O)N[C@@H](CC(N)=O)C(=O)N[C@@H](CC(N)=O)C(=O)N[C@H](C(=O)N[C@@H](CC(C)C)C(=O)N[C@@H](CC(C)C)C(=O)N[C@@H](CS)C(=O)N1CCC[C@H]1C(=O)N[C@H](C(=O)N[C@@H](CC(=O)O)C(=O)N[C@@H](CS)C(=O)O)[C@@H](C)O)[C@@H](C)O)C(C)C` [compound 26, PCVIGGVGNNTLLCPTDC] (H-PCVIGGVGNNTLLCPTDC-OH; N-terminus and C-terminus assumed), the Percent inhibition in test [1] is on record as 51.6%. Besides, in test [1] (setting [2]), the Luciferase units is listed as 216,706 luciferase units (lumens).

For the compound “YTIFKVRMYVGGVEHRLE [compound 34, YTIFKVRMYVGGVEHRLE]”, the Percent inhibition in test [1] came out at 21.8%. The Luciferase units in test [1] (setting [2]) is recorded as 354,696 luciferase units (lumens).

As to enfuvirtide, the HIV-1 load entry in the test on HIV-1 is on record as “substantially reduce”.

Regarding `CSCC[C@H](NC(=O)[C@H](Cc1c[nH]c2ccccc12)NC(=O)[C@@H](NC(=O)[C@H](CS)NC(=O)CNC(=O)[C@H](Cc1ccccc1)NC(=O)[C@H](Cc1c[nH]c2ccccc12)NC(=O)[C@H](CC(N)=O)NC(=O)CNC(=O)[C@H](CCC(N)=O)NC(=O)[C@@H]1CCCN1C(=O)[C@@H]1CCCN1C(=O)[C@H](CCCNC(=N)N)NC(=O)[C@@H](NC(=O)[C@H](CC(N)=O)NC(=O)[C@@H](N)CC(N)=O)[C@@H](C)O)[C@@H](C)O)C(=O)N[C@@H](CC(N)=O)C(=O)N[C@@H](CO)C(=O)O` [compound 99, NNTRPPQGNWFGCTWMNS], the Percent inhibition in test [1] was 75.2%. Besides, the Luciferase units in test [1] (setting [3]) is 111,043 luciferase units (lumens).

On to WMNSTGFTKVCGAPPCVI [compound 24], for which the Percent inhibition in test [1] is 19.7%. Also, the Luciferase units in test [1] (setting [2]) is 391,886 luciferase units (lumens).

On to “TGLIHLHQNIVDVQYLYG [compound 43, TGLIHLHQNIVDVQYLYG]”, for which, in test [1], the Percent inhibition is on record as 92.8% and the “Inhibition … (in words)” value was “inhibitory”. For the same compound, the Luciferase units in test [1] (setting [2]) is 32,283 luciferase units (lumens).

On to “HPEATYTKCGSGPWLTPR [compound 105, HPEATYTKCGSGPWLTPR]”, for which the Percent inhibition in test [1] was −23.2%. Moreover, in test [1] (setting [3]), the Luciferase units is recorded as 552,170 luciferase units (lumens).

In the case of PYCWHYAPRPCGVVPASQ [compound 91], the Percent inhibition in test [1] stood at 69.1%. Besides, the Luciferase units in test [1] (setting [3]) is on record as 160,883 luciferase units (lumens).

Turning to “MYVGGVEHRLEAACNWTR [compound 35, MYVGGVEHRLEAACNWTR]”, the Percent inhibition in test [1] was 66.7%. In addition, in test [1] (setting [2]), the Luciferase units is given as 153,553 luciferase units (lumens).

On to “QILPCAFTTLPALSTGLI [compound 116, QILPCAFTTLPALSTGLI]”, for which, in test [1], the Percent inhibition is 12.1%. The Luciferase units in test [1] (setting [3]) was 394,096 luciferase units (lumens).

Take “LASCRRLTDFAQGWGPIS [compound 11, LASCRRLTDFAQGWGPIS]”: the Percent inhibition in test [1] amounted to 19.6%. The Luciferase units in test [1] (setting [2]) is listed as 360,410 luciferase units (lumens).

“SPVVVGTTDRSGVPTYSW [compound 95, SPVVVGTTDRSGVPTYSW]”: the Percent inhibition in test [1] was −20.1%. Moreover, the Luciferase units in test [1] (setting [3]) is on record as 538,110 luciferase units (lumens).

Take “TDFAQGWGPISYANGSGL [compound 12, TDFAQGWGPISYANGSGL]”: the Percent inhibition in test [1] is listed as 6.8%. Moreover, the Luciferase units in test [1] (setting [2]) is 417,706 luciferase units (lumens).

With “HYPCTINYTIFKVRMYVG [compound 33, HYPCTINYTIFKVRMYVG]”, in test [1], the Percent inhibition was 95.0% and the “Inhibition … (in words)” value is given as “inhibitory”. Besides, the Luciferase units in test [1] (setting [2]) is reported as 22,406 luciferase units (lumens).
